In publication PMC11167047 (Cell Death Discovery, 2024):

Columns and labels:
Assay in all cases: kinome screen (33PanQinase)
Assay type in all cases: biochemical
BMX = target: T1, BMX (Homo sapiens, UniProt P51813)
T1 construct: purchased Reaction Biology Europe GmbH (formerly ProQinase)
T1 sequence (P51813 1-675): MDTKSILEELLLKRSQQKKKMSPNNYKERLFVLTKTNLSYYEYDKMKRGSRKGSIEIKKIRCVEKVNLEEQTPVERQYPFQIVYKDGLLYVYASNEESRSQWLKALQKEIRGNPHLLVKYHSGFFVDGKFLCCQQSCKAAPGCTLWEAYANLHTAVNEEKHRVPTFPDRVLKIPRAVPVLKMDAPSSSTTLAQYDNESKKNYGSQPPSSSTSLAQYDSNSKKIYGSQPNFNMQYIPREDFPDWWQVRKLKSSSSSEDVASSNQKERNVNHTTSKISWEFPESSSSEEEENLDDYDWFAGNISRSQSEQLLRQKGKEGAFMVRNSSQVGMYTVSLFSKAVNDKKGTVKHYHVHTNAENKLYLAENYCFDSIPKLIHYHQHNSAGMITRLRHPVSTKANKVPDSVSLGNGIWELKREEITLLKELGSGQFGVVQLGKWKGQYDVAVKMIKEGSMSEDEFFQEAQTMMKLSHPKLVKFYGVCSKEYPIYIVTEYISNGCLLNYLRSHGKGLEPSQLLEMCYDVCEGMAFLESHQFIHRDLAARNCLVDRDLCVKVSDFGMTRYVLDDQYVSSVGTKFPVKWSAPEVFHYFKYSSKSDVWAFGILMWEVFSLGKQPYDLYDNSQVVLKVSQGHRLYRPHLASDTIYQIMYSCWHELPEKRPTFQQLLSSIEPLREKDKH
Experimental: (§1) The Kinome Screening was performed by Reaction Biology Europe GmbH (http://reactionbiology.com; Freiburg i. Br., Germany).

RPS6KA3 = target: T2, RPS6KA3 (Homo sapiens, UniProt P51812)
T2 construct: purchased Reaction Biology Europe GmbH (formerly ProQinase)
Experimental: as §1

EPHA7 = target: T3, EPHA7 (Homo sapiens, UniProt Q15375)
T3 construct: purchased Reaction Biology Europe GmbH (formerly ProQinase)
Experimental: as §1

GSK3β = target: T4, GSK3β (Homo sapiens, UniProt P49841)
T4 construct: purchased Reaction Biology Europe GmbH (formerly ProQinase)
Experimental: as §1

RPS6KA5 = target: T5, RPS6KA5 (Homo sapiens, UniProt O75582)
T5 construct: purchased Reaction Biology Europe GmbH (formerly ProQinase)
Experimental: as §1

PKCγ = target: T6, PKCγ (Homo sapiens, UniProt P05129)
T6 construct: purchased Reaction Biology Europe GmbH (formerly ProQinase)
Experimental: as §1

ZAP70 = target: T7, ZAP70 (Homo sapiens, UniProt P43403)
T7 construct: purchased Reaction Biology Europe GmbH (formerly ProQinase)
T7 sequence (P43403 1-619): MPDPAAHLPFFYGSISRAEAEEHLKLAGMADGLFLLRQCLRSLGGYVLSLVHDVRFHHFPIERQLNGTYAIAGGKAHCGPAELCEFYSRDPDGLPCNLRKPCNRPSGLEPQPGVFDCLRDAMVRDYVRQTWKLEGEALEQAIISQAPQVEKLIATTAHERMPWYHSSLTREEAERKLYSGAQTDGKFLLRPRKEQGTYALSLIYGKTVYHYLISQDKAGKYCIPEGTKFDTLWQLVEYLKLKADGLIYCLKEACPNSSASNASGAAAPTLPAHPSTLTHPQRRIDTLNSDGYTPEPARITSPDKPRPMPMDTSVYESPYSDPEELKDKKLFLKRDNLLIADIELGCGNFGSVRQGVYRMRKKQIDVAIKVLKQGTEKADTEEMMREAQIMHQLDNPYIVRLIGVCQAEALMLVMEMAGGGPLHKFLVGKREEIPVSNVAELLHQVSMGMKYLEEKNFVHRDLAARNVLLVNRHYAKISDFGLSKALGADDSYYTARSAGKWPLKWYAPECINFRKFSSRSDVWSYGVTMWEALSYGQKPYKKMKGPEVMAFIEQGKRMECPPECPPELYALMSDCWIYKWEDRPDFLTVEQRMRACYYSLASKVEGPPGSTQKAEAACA
Experimental: as §1

PKMYT1 = target: T8, PKMYT1 (Homo sapiens, UniProt Q99640)
T8 construct: purchased Reaction Biology Europe GmbH (formerly ProQinase)
T8 sequence (Q99640 1-499): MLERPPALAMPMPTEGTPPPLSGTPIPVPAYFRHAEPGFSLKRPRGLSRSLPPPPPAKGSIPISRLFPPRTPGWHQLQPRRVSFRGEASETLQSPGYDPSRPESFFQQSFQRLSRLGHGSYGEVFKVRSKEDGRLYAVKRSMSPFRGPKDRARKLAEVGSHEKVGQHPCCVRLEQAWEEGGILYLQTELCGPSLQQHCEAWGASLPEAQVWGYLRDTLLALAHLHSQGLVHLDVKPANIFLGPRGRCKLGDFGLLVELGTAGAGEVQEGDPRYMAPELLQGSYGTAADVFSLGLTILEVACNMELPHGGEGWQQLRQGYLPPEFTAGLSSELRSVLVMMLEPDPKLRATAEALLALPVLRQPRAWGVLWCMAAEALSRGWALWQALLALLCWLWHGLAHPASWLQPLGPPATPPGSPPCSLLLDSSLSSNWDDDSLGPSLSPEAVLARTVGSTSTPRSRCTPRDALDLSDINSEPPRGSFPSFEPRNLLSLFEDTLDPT
Experimental: as §1

PKCι = target: T9, PKCι (Homo sapiens, UniProt P41743)
T9 construct: purchased Reaction Biology Europe GmbH (formerly ProQinase)
T9 sequence (P41743 1-596): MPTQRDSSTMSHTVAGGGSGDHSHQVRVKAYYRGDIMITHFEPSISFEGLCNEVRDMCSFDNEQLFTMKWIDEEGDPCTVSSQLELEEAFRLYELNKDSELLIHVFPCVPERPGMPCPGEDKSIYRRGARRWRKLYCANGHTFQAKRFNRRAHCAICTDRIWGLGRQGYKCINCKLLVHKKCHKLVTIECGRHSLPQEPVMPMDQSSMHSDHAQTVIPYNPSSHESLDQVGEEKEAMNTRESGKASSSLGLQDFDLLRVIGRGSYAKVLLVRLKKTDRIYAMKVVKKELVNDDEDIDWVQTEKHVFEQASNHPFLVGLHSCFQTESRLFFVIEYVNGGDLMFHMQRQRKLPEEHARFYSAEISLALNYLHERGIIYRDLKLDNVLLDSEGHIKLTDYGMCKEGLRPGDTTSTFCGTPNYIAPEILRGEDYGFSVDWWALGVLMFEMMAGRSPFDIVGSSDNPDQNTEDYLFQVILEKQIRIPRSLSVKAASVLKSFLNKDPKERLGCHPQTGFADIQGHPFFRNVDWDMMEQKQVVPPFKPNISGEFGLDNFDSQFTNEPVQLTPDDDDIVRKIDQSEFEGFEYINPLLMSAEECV
Experimental: as §1

T2 sequence (P51812 whole entry): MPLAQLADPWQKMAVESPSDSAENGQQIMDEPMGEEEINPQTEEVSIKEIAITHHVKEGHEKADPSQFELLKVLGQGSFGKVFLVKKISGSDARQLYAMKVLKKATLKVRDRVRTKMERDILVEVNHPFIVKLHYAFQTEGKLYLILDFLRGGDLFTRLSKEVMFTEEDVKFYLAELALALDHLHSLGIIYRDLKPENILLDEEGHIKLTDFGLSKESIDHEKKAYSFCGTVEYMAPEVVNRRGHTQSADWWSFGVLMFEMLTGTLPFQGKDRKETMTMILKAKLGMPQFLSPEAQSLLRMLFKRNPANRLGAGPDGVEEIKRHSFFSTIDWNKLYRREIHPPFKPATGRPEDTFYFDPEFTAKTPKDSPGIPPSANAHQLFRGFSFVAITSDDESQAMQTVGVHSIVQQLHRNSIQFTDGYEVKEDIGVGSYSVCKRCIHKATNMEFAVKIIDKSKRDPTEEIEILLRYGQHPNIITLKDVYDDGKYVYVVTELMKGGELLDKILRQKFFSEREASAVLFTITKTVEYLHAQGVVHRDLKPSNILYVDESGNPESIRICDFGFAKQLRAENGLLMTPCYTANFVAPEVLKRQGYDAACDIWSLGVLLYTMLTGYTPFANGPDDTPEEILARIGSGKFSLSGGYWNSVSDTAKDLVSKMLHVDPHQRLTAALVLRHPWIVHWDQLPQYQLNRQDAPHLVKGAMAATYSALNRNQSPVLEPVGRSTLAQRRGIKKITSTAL
T3 sequence (Q15375 28-998): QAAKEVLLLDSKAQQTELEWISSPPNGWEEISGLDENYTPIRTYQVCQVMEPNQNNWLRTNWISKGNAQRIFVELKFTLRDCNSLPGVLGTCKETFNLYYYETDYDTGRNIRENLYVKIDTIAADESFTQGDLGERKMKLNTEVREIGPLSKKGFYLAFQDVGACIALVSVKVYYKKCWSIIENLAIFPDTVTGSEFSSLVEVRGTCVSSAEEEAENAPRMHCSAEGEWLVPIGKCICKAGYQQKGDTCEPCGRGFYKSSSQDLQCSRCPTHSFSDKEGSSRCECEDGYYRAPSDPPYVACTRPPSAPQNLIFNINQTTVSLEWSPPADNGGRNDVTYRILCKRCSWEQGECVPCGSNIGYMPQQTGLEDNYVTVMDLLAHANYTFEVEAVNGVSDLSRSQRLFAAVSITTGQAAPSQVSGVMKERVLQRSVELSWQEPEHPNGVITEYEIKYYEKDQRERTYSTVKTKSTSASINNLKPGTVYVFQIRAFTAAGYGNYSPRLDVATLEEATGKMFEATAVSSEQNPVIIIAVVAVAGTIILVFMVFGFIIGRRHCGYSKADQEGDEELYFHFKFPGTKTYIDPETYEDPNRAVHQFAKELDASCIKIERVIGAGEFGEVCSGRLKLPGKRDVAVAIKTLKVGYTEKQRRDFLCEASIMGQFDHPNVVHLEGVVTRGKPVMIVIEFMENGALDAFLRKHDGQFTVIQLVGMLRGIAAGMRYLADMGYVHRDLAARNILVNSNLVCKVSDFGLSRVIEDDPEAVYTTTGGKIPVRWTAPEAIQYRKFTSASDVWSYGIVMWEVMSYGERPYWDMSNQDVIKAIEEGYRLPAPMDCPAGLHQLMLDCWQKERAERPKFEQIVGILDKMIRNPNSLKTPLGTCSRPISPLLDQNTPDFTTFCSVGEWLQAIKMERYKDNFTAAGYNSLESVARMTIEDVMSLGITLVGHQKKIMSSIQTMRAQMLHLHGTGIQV
T4 sequence (P49841 whole entry): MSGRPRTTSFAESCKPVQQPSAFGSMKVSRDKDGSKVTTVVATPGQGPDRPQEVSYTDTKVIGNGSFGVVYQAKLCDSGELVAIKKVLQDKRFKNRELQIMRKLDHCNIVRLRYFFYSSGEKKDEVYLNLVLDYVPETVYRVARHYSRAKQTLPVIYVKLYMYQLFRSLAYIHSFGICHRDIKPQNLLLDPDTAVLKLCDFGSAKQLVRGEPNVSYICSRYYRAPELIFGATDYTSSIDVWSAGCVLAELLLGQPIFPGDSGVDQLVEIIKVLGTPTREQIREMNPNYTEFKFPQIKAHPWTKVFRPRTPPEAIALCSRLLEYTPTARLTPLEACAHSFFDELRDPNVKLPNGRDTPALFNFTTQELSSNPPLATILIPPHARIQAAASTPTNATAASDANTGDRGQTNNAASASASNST
T5 sequence (O75582 whole entry): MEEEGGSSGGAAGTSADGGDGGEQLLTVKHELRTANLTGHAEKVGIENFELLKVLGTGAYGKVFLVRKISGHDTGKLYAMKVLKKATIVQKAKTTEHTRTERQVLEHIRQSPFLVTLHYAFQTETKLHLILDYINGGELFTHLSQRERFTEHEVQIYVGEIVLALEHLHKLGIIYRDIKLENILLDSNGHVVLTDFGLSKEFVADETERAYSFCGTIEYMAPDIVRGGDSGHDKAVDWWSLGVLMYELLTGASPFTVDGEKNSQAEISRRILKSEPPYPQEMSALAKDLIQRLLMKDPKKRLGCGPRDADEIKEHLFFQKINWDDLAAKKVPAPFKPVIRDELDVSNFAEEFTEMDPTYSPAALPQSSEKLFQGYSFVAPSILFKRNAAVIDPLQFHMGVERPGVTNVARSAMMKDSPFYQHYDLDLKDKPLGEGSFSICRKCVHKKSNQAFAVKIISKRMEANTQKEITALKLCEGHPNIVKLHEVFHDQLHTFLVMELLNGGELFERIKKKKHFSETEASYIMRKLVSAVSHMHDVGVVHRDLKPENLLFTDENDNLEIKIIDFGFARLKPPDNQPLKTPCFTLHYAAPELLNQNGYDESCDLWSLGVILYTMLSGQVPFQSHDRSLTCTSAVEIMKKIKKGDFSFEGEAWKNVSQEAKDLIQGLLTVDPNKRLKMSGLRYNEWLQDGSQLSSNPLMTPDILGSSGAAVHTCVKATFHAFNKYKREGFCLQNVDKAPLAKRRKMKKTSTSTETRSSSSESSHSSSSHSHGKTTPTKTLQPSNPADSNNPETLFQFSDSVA

`COc1ccnc2[nH]cc(-c3cc(N)nc(N)c3)c12` [meriolin 16] was tested, and the residual kinase activity (BMX; 0.03 µM) was 118 % of control, the residual kinase activity (BMX; 0.3 µM) was 103 % of control and the residual kinase activity (RPS6KA3; 0.03 µM) was 85 % of control. For the same compound, the residual kinase activity (RPS6KA3; 0.3 µM) was 39 % of control, the residual kinase activity (EPHA7; 0.03 µM) was 122 % of control and the residual kinase activity (EPHA7; 0.3 µM) was 107 % of control. The residual kinase activity (GSK3β; 0.03 µM) was 80 % of control, the residual kinase activity (GSK3β; 0.3 µM) was 66 % of control and the residual kinase activity (RPS6KA5; 0.03 µM) was 89 % of control. For the same compound, the residual kinase activity (RPS6KA5; 0.3 µM) was 82 % of control, the residual kinase activity (PKCγ; 0.03 µM) was 99 % of control and the residual kinase activity (PKCγ; 0.3 µM) was 54 % of control. For the same compound, the residual kinase activity (ZAP70; 0.03 µM) was 95 % of control, the residual kinase activity (ZAP70; 0.3 µM) was 83 % of control and the residual kinase activity (PKMYT1; 0.03 µM) was 32 % of control. For the same compound, the residual kinase activity (PKMYT1; 0.3 µM) was 23 % of control, the residual kinase activity (PKCι; 0.03 µM) was 105 % of control and the residual kinase activity (PKCι; 0.3 µM) was 94 % of control.
`c1ccc(CNc2cc(-c3c[nH]c4ncccc34)ccn2)cc1` [meriolin 36] was tested, and the residual kinase activity (BMX; 0.3 µM) was 109 % of control, the residual kinase activity (BMX; 3 µM) was 49 % of control and the residual kinase activity (RPS6KA3; 0.3 µM) was 7 % of control. For the same compound, the residual kinase activity (RPS6KA3; 3 µM) was 1 % of control, the residual kinase activity (EPHA7; 0.3 µM) was 131 % of control and the residual kinase activity (EPHA7; 3 µM) was 93 % of control. For the same compound, the residual kinase activity (GSK3β; 0.3 µM) was 18 % of control, the residual kinase activity (GSK3β; 3 µM) was 2 % of control and the residual kinase activity (RPS6KA5; 0.3 µM) was 46 % of control. For the same compound, the residual kinase activity (RPS6KA5; 3 µM) was 15 % of control, the residual kinase activity (PKCγ; 0.3 µM) was 33 % of control and the residual kinase activity (PKCγ; 3 µM) was 5 % of control. For the same compound, the residual kinase activity (ZAP70; 0.3 µM) was 110 % of control, the residual kinase activity (ZAP70; 3 µM) was 85 % of control and the residual kinase activity (PKMYT1; 0.3 µM) was 39 % of control. For the same compound, the residual kinase activity (PKMYT1; 3 µM) was 13 % of control, the residual kinase activity (PKCι; 0.3 µM) was 75 % of control and the residual kinase activity (PKCι; 3 µM) was 32 % of control.
